# Reference: the NIST ThermoML archive (doi:10.1021/je049721u)
# Where “and” joins values, the source holds several entries; their conditions need not be identical. Equal entries are not always repeated. ± gives the expanded uncertainty stated by the source.
# Columns and labels:
# [1] = 101.3 kPa, Liquid
# [2] = mn = molality of the nth substance listed, in mol/kg; conditions: 101.3 kPa, Liquid, m2 = 0
Structure (SMILES),mass density ([1]; 283.15 K),mass density ([1]; 293.15 K),mass density ([1]; 298.15 K),mass density ([1]; 303.15 K),mass density ([1]; 313.15 K),mass density ([1]; 323.15 K),mass density ([1]; 333.15 K),mass density ([2]; 283.15 K) [kg/m3],mass density ([2]; 293.15 K) [kg/m3],mass density ([2]; 298.15 K) [kg/m3],mass density ([2]; 303.15 K) [kg/m3],mass density ([2]; 313.15 K) [kg/m3],mass density ([2]; 323.15 K) [kg/m3],mass density ([2]; 333.15 K) [kg/m3]
CN(C)C=O [dimethylformamide],958.077 ± 0.58 kg/m3 and 958.163 ± 0.58 kg/m3 and 958.075 ± 0.58 kg/m3,948.565 ± 0.58 kg/m3 and 948.653 ± 0.59 kg/m3,943.797 ± 0.59 kg/m3 and 943.884 ± 0.59 kg/m3,939.017 ± 0.59 kg/m3 and 939.114 ± 0.59 kg/m3,929.529 ± 0.6 kg/m3 and 929.437 ± 0.6 kg/m3,919.807 ± 0.6 kg/m3 and 919.9 ± 0.61 kg/m3,910.12 ± 0.61 kg/m3 and 910.2 ± 0.61 kg/m3,,,,,,,
CN(C)C=O [dimethylformamide] + [Cu+2].[O-][Cl+3]([O-])([O-])[O-].[O-][Cl+3]([O-])([O-])[O-],,,,,,,,958.075 ± 0.58,948.565 ± 0.59,943.797 ± 0.59,939.017 ± 0.59,929.437 ± 0.6,919.807 ± 0.61,910.12 ± 0.61
CN(C)C=O [dimethylformamide] + [O-][Cl+3]([O-])([O-])[O-].[O-][Cl+3]([O-])([O-])[O-].[Zn+2],,,,,,,,958.163 ± 0.58,948.653 ± 0.59,943.884 ± 0.59,939.114 ± 0.59,929.529 ± 0.6,919.9 ± 0.61,910.2 ± 0.61
CN(C)C=O [dimethylformamide] + [Co+2].[O-][Cl+3]([O-])([O-])[O-].[O-][Cl+3]([O-])([O-])[O-],,,,,,,,958.163 ± 0.58,948.653 ± 0.59,943.884 ± 0.59,939.114 ± 0.59,929.529 ± 0.6,919.9 ± 0.61,910.2 ± 0.61
CN(C)C=O [dimethylformamide] + [Ni+2].[O-][Cl+3]([O-])([O-])[O-].[O-][Cl+3]([O-])([O-])[O-],,,,,,,,958.163 ± 0.58,948.653 ± 0.59,943.884 ± 0.59,939.114 ± 0.59,929.529 ± 0.6,919.9 ± 0.61,910.2 ± 0.61
CN(C)C=O [dimethylformamide] + [Mn+2].[O-][Cl+3]([O-])([O-])[O-].[O-][Cl+3]([O-])([O-])[O-],,,,,,,,958.077 ± 0.58,948.565 ± 0.58,943.797 ± 0.59,939.017 ± 0.59,929.437 ± 0.6,919.807 ± 0.6,910.12 ± 0.61
